Reference: PubChem BioAssay (NCI)
Where “and” joins values, the source holds several entries; their conditions need not be identical. Equal entries are not always repeated.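 Each compound was tested at five concentrations against cells in 96-well plates for 48 hours. GI50: concentration for 50% inhibition of growth. TGI is the concentration that stops growth completely.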

How the values were obtained:
Experiment in all cases: growth of human tumour cells (NCI), 48 h
CCRF-CEM leukemia = system: CCRF-CEM leukemia
TK-10 renal = system: TK-10 renal
LOX IMVI melanoma = system: LOX IMVI melanoma
SF-295 CNS = system: SF-295 CNS
MDA-MB-231 breast = system: MDA-MB-231 breast
RPMI-8226 leukemia = system: RPMI-8226 leukemia
SF-539 CNS = system: SF-539 CNS
SK-MEL-2 melanoma = system: SK-MEL-2 melanoma
EKVX NSCLC = system: EKVX NSCLC
OVCAR-8 ovarian = system: OVCAR-8 ovarian

Compound | TGI (CCRF-CEM leukemia) [µM] | TGI (TK-10 renal) [µM] | TGI (LOX IMVI melanoma) [µM] | TGI (SF-295 CNS) | TGI (MDA-MB-231 breast) [µM] | TGI (RPMI-8226 leukemia) [µM] | TGI (SF-539 CNS) [µM] | TGI (SK-MEL-2 melanoma) | TGI (EKVX NSCLC) [µM] | TGI (OVCAR-8 ovarian) [µM] | GI50 (CCRF-CEM leukemia) | GI50 (LOX IMVI melanoma) | GI50 (SF-295 CNS) | GI50 (RPMI-8226 leukemia) | GI50 (SF-539 CNS) [nM] | GI50 (SK-MEL-2 melanoma) | GI50 (TK-10 renal) [nM] | GI50 (MDA-MB-231 breast) [nM] | GI50 (EKVX NSCLC) [nM] | GI50 (OVCAR-8 ovarian) [nM]
O=C1c2ccccc2C2(c3ccc(Cl)cc3)NCc3ccccc3CN12 (stereo unspecified) | 86.2 | > 100 | 29.7 | 35.7 µM | > 100 | 75.2 | 29.8 | 29.5 µM | 49.1 | 60.8 |  |  |  |  |  |  |  |  |  | 
COC(=O)C1(NC(=O)C(N)CC(=O)O)C(C)C1C (stereo unspecified) | > 100 | > 100 | > 100 | > 100 µM | > 100 | > 100 | > 100 | > 100 µM | > 100 | > 100 |  |  |  |  |  |  |  |  |  | 
O=C(Nc1ccc2ccccc2c1)Nn1cnnc1 | > 100 | > 100 | > 100 | > 100 µM | > 100 | > 100 | > 100 | > 100 µM | > 100 | > 100 |  |  |  |  |  |  |  |  |  | 
COC(=O)C1=C(OC(=O)/C(=C/c2ccc(Cl)cc2)c2ccccc2)C(C(=O)OC)[C@@]2(O)[C@@H](C(=O)OC)[C@H](C)C[C@@H]1[C@@H]2C(=O)OC (stereo partly specified) | > 100 | > 100 | > 100 | > 100 µM | > 100 | > 100 | > 100 | > 100 µM | > 100 | > 100 |  |  |  |  |  |  |  |  |  | 
CC(C)OC(=O)c1ccc(CCC2=CC(=O)C(Br)=CC2=O)cc1 | 5.06 | 45.3 | 30.8 | 39.6 µM | 31.1 | 43.3 | 35.5 | 41.7 µM | 31.1 | 32.8 |  |  |  |  |  |  |  |  |  | 
O=C1c2ccccc2C(=O)N1C(=S)c1ccccc1 | > 100 | > 100 | > 100 | > 100 µM | > 100 | > 100 | > 100 | > 100 µM | > 100 | > 100 |  |  |  |  |  |  |  |  |  | 
O=C(c1ccc(Cl)cc1)N1N=C(c2ccc(Cl)cc2)CC1(O)c1cc(F)c(Cl)cc1Cl (stereo unspecified) | > 100 | > 100 | 43.3 | > 100 µM | > 100 | 40.3 | > 100 | 39 µM | 59.3 | > 100 |  |  |  |  |  |  |  |  |  | 
CCCCCC(/C=C/[C@@H]1CC(=O)C[C@H]1O[Si](C)(C)C(C)(C)C)OCOCCOC (stereo partly specified) | > 100 | 26.3 | 7 | 25.5 µM | 14.7 | 6.42 | 5.98 | 12.6 µM | 23.7 | 18.3 |  |  |  |  |  |  |  |  |  | 
N#CSCC1COc2ccccc2O1 (stereo unspecified) | 8.3 | > 10 | > 10 | > 10 µM | > 10 | > 10 | > 10 | > 10 µM | > 10 | > 10 |  |  |  |  |  |  |  |  |  | 
Sc1nnc(-c2ccccc2Nc2ccccc2-c2nnc(S)n2-c2ccccc2)n1-c1ccccc1 | > 100 | > 100 | > 100 | > 100 µM | 89.6 | 48 | > 100 | 84.2 µM | 97.9 | > 100 |  |  |  |  |  |  |  |  |  | 
Cc1cc(=O)c2c(O)c3c(O)cc(O)c4c5c(O)cc(O)c6c(O)c7c(=O)cc(C)c8c1c2c(c34)c(c65)c78 | > 100 | > 100 | > 100 | > 100 µM and 37.6 µM | > 100 | > 100 | > 100 | > 100 µM and 94 µM | > 100 | > 100 | > 100 µM and 22.2 µM | > 100 µM and 35.4 µM | > 100 µM and 16.6 µM | > 100 µM and 22.3 µM | > 100000 | > 100 µM and 37.3 µM |  |  |  | 
Cc1cccc2c(N)c3cccc(C(=O)NCC[N+](C)(C)Cc4sc(N5CCOCC5)nc4[N+](=O)[O-])c3nc12 | 26.9 | 37.6 | 3.78 | 14.3 µM | 13.1 | > 100 | 10 | 45.3 µM | > 100 | 17.4 |  |  |  |  |  |  |  |  |  | 
Cc1ccccc1NC(=S)N/N=C(/c1ccccc1)c1ccccn1 | 11.6 | 5.24 | 20.4 | 8.7 µM | 12.7 | 10.2 | 7.76 | 6.9 µM | 3.43 | 11.8 |  |  |  |  |  |  |  |  |  | 
CCN(CC)C(=S)SNCCc1ccc(S(N)(=O)=O)cc1 | 36.8 | 42.5 | 33 | 47.5 µM | 30.4 | 38.6 | 28.8 | > 86.7 µM | 40 | 25.2 |  |  |  |  |  |  |  |  |  | 
CC1CCC2c3c([nH]c4ccccc34)C3C(=O)N(C4CCCCC4)C(=O)C3C2C1 (stereo unspecified) | > 100 | 27.1 | > 100 | 37.5 µM | 26.8 | > 100 | 62.6 | 40.3 µM | 39.6 | 42.5 |  |  |  |  |  |  |  |  |  | 
CC1(C)Oc2ccc(Cl)cc2C12CC2 | > 100 | 40.7 | 30.9 | 27 µM | 47.6 | > 100 | > 100 | 33.4 µM | 37.9 | 28.4 |  |  |  |  |  |  |  |  |  | 

Compound | TGI (CCRF-CEM leukemia) [µM] | TGI (TK-10 renal) [µM] | TGI (LOX IMVI melanoma) [µM] | TGI (SF-295 CNS) | TGI (MDA-MB-231 breast) [µM] | TGI (RPMI-8226 leukemia) [µM] | TGI (SF-539 CNS) [µM] | TGI (SK-MEL-2 melanoma) | TGI (EKVX NSCLC) [µM] | TGI (OVCAR-8 ovarian) [µM] | GI50 (CCRF-CEM leukemia) | GI50 (LOX IMVI melanoma) | GI50 (SF-295 CNS) | GI50 (RPMI-8226 leukemia) | GI50 (SF-539 CNS) [nM] | GI50 (SK-MEL-2 melanoma) | GI50 (TK-10 renal) [nM] | GI50 (MDA-MB-231 breast) [nM] | GI50 (EKVX NSCLC) [nM] | GI50 (OVCAR-8 ovarian) [nM]
Cc1ccc([N+](=O)[O-])cc1S(=O)(=O)Nc1ccc(C2=NN(c3ccc([N+](=O)[O-])cc3[N+](=O)[O-])C(c3ccccc3O)C2)cc1 (stereo unspecified) | > 100 | > 100 | > 100 | > 100 µM | 86.6 | > 100 | > 100 | 59.4 µM | 90.6 | > 100 |  |  |  |  |  |  |  |  |  | 
Cc1ccc(O)c(Cc2nc3ccccc3nc2-c2cccc(Br)c2)c1 | > 100 | > 100 | > 100 | > 100 µM | > 100 | > 100 | > 100 | > 100 µM | > 100 | > 100 |  |  |  |  |  |  |  |  |  | 
O=[N+]([O-])c1cccc2nc3ccccc3c(NCCC[N+]3([O-])CCCCC3)c12 | > 36.5 | 10.9 | 2.4 | 12.6 µM | 1.16 | 10.5 | 2.16 | 0.354 µM | 2.94 | 13.6 |  |  |  |  |  |  |  |  |  | 
CC(=O)NC1C(OCc2ccccc2)OC(CO)C(O)C1OCC(=O)NC(C)C(=O)NC(CCC(=O)NCCCCCC(=O)Nc1ccc2c(c1)CN1C(=O)c3ccccc3C1=N2)C(N)=O (stereo unspecified) | > 100 | > 100 | > 100 | > 100 µM | > 100 | > 100 | > 100 | > 100 µM | > 100 | > 100 |  |  |  |  |  |  |  |  |  | 
COc1ccc(OC)c(CNc2ccc(O)c(C(=O)NCCc3ccc(F)cc3)c2)c1 | > 100 | 94.9 | 25.3 | 51.7 µM | 21.7 | 15.4 | 35.7 | 26.4 µM | 65.6 | 37.6 |  |  |  |  |  |  |  |  |  | 
Oc1c(I)cc(I)cc1CNCCCN(Cc1ccccn1)Cc1ccccn1 | 50 | 1.8 | 1.77 | 1.74 µM | 2.12 | 4.47 | 1.61 | 2.91 µM | 2.38 | 3.27 | 1.54 µM | 0.926 µM | 0.885 µM | 1.34 µM | 863 | 1.18 µM | 922 | 1010 | 1000 | 1250
Cc1ccc(S(=O)(=Nc2ccccc2)C(C(C)C)C(C)(C)Cl)cc1 (stereo unspecified) | > 50 | > 50 | > 50 | > 50 µM | > 50 | > 50 | > 50 | 43.9 µM | 47.3 | > 50 |  |  |  |  |  |  |  |  |  | 
O=C(CCc1cc(O)cc(O)c1)NCCc1ccc(O)c(O)c1 | 56.1 | > 100 | > 100 | > 100 µM | > 100 | > 100 | > 100 | > 100 µM | > 100 | > 100 |  |  |  |  |  |  |  |  |  | 
Cc1ccccc1NC(=S)N=Nc1c(O)[nH]c2ccccc12 | > 100 | > 100 | > 100 | > 100 µM | > 100 | > 100 | > 100 | > 100 µM | > 100 | > 100 |  |  |  |  |  |  |  |  |  | 
CC(=O)O[C@H]1CC[C@@]2(C)C(=CC[C@@H]3[C@@H]2CC[C@]2(C)c4nc(N)c(C#N)cc4C[C@@H]32)C1 | > 89.5 | > 100 | > 100 | > 100 µM | > 100 | > 100 | 64 | > 100 µM | > 86.9 | > 100 |  |  |  |  |  |  |  |  |  | 
COc1cc2c3c(cc(Cl)nc3c1OC)C(O)(CC(C)=O)C(=O)N2 (stereo unspecified) | > 45.4 | 37.3 | 34.8 | > 100 µM | 33 | > 78.6 | > 100 | 45.7 µM | 30.9 | 36.2 |  |  |  |  |  |  |  |  |  | 
Cc1cc2nc3n(c2cc1C)C(c1c(F)cccc1F)SC3 (stereo unspecified) | 64.3 | > 100 | 30.3 | 54.2 µM | 41.4 | 58.5 | 38.2 | 39.7 µM | 75.4 | > 100 |  |  |  |  |  |  |  |  |  | 
[N-]=[N+]=C1CNC(=O)NC1=O | > 100 | > 100 | > 100 | > 100 µM | > 100 | > 100 | > 100 | > 100 µM | > 100 | > 100 |  |  |  |  |  |  |  |  |  | 
O=C1Nc2ccccc2NC1C1OC(c2ccccc2)=CC1=O (stereo unspecified) | > 100 | > 100 | > 100 | > 100 µM | > 100 | > 100 | > 100 | > 100 µM | > 100 | > 100 |  |  |  |  |  |  |  |  |  | 
CCCCCCC(CCl)c1sc(-c2csc(CCNC(=O)OC(C)(C)C)n2)nc1C(=O)OC (stereo unspecified) | > 100 | > 100 | 25.9 | > 100 µM | > 100 | > 100 | 44.4 | 29.6 µM | > 100 | > 100 |  |  |  |  |  |  |  |  |  | 
O=C([C@H](O)[C@@H](O)c1ccc(Br)cc1)C12CC3CC(CC(C3)C1)C2 | > 30.8 | > 47.8 | > 100 | 47.1 µM | > 43 | > 100 | > 28.7 | > 31.6 µM | > 76.9 | > 100 |  |  |  |  |  |  |  |  |  | 
